Article PMC2714474, “Extreme variability in the formation of chlorpyrifos oxon (CPO) in patients poisoned by chlorpyrifos (CPF)” (Biochemical Pharmacology, 2009)

Columns and labels:
[1] = target: butyrylcholinesterase (BChE; EC 3.1.1.8) (Homo sapiens, UniProt P06276); experiment: BChE activity in plasma of CPF-poisoned patients; assay type: in vivo; conditions: one patient, 70 min after CPF ingestion
Description: (§1) Laboratory analyses were conducted in Munich, Germany. AChE activity was determined in native RBCs (AChE in vivo) and after reactivation with supra-therapeutic obidoxime (AChE in vitro) to estimate the reactivatable fraction. These assays were performed using a modified Ellman assay as described. BChE activity and inhibitory activity of plasma were assessed as reported. In short, inhibitory activity of patient plasma was tested by incubating 3 volumes of hemolysate (3 g Hb/100 mL 0.1 M phosphate buffer, pH 7.4; washed red blood cells from a healthy donor) with 1 volume of patient plasma at 37 °C for 60 min.

CYP3A4 = conditions: read-out: Km of CPF desulfuration; human hepatic CYP3A4; cited from earlier work
[2] = Plasma CPF concentration in CPF-poisoned patients (HPLC)
Description: (§2) Serial blood samples stem from patients with acute chlorpyrifos poisoning who were enrolled in two randomised controlled studies (RCT1: ISRCTN02920054 and RCT2: ISRCTN55264358). The studies were performed in Sri Lankan hospitals in Anuradhapura and Polonnaruwa aimed at evaluating the efficacy of oral superactivated charcoal (RCT 1) or pralidoxime (RCT 2) in symptomatic organophosphorus pesticide poisoning. Additional patients were recruited in a prospective cohort study in Nuwara Eliya that was assessing changes in neuromuscular junctional function in organophosphorus pesticide poisoning. […] Treatment consisted of fluid resuscitation and atropine as described [15] and pralidoxime chloride 1 g every 6 for 48 h (RCT1 and Nuwara Eliya cohort), although there was no strict adherence to this regimen. Patients in RCT2 were randomised to receive pralidoxime (2 g pralidoxime chloride loading dose over 20 min, then 0.5 g/h until a maximum of 7 days) or an equal volume of normal saline in addition to the supportive therapy mentioned above. The blood samples were collected between 25 May 2004 and 18 October 2006.
(§3) Blood samples were collected into tubes containing EDTA prior to pralidoxime, then at 1, 4, 12, and 24 h after administration, then once daily until discharge or death. A 0.2 mL blood sample was diluted at the bedside immediately after collection with 4 mL of ice-cold saline and frozen to −23 °C until analysis of AChE activity. The remaining sample was promptly centrifuged and the aspirated plasma frozen at −23 °C until analysis of BChE activity, inhibitory activity, and the concentration of CPF and CPO [15].
CPF was determined by reversed phase HPLC with detection at 288 nm. Specifically, 0.5 mL plasma was mixed with 10 μL of 500 μM fenitrothion as internal standard to control the extraction yield. The plasma was extracted twice with 1 mL n-hexane for 1 min and residual lipoproteins in the combined hexane phases were precipitated with 50 μL 1 M perchloric acid, followed by centrifugation (10.000 rpm for 1 min). The hexane phase was transferred in a borosilica vial and 10 μL of DMSO was added as keeper. Hexane was evaporated at approximately 40 °C for 30 min in a Speed-Vac-Concentrator. The residue was dissolved in 90 μL of methanol:water (70/30, v/v) and 50 μL were applied to LiChrosphere 100 RP-18, 5 μm, 125 mm × 4 mm (E. Merck, Darmstadt, Germany) and eluted at a flow rate of 1 mL/min by gradient elution. […] Typically, fenitrothion was eluted after 3.3 min and chlorpyrifos after 11.5 min. The lower limit of quantification (LOQ) was 0.1 μM in plasma.

[3] = target: T1, RBC acetylcholinesterase (AChE; EC 3.1.1.7) (Homo sapiens, UniProt P22303); experiment: RBC-AChE activity in CPF-poisoned patients (modified Ellman assay); assay type: in vivo
T1 construct: from tissue; host or cells: red blood cells (diluted whole blood) of chlorpyrifos-poisoned patients
T1 sequence (P22303 32-617 isoform P22303-2 limits assumed): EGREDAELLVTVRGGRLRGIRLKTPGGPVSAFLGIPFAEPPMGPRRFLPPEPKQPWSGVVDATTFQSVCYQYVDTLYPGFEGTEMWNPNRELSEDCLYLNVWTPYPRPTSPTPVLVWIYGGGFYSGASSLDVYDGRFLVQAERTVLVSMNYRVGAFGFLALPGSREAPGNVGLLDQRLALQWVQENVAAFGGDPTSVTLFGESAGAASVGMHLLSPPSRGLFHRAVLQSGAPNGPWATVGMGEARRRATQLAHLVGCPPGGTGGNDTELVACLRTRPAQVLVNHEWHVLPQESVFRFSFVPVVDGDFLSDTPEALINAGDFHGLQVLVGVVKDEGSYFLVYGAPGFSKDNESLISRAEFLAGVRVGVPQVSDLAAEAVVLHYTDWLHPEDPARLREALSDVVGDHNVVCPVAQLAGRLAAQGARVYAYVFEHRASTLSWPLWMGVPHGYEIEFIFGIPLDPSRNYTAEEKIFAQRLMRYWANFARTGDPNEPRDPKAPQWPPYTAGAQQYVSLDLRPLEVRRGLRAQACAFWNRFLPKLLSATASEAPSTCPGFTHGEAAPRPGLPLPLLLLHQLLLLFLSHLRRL
Description: as §1

CYP2B6 = conditions: read-out: Km of CPF desulfuration; human hepatic CYP2B6; cited from earlier work
BChE = conditions: cited from earlier work
[4] = system: human diethylphosphoryl-AChE; conditions: human red blood cells in vitro, cited from earlier work
[5] = system: human red blood cell AChE; experiment: Inhibition kinetics of human red blood cell AChE by CPO; assay type: biochemical; conditions: 11.3 nM AChE, 20 nM CPO
Description: The basis for the calculation of free CPO is the equation given below: [E]/[EP+EPOx]=kr/ki×[P]×(1+KD/[Ox]) E = active enzyme; EP = phosphorylated, but unaged enzyme; EPOx = complex of oxime and phosphorylated, but unaged enzyme; [EP + EPOx] is the reactivatable enzyme = AChE in vitro–AChE in vivo; kr is the first-order reactivation rate constant; KD is the dissociation constant of the complex EPOx; ki is the second-order inhibition rate constant; [P] is the oxon concentration; [Ox] is the oxime concentration.
The fraction of active test AChE upon incubation with known amounts of CPO in plasma samples was calculated discretely in 1-min increments using the following equation: E=E0−ki×(E−EP)×0.15×(CPO0−EP), with E0 and CPO0 being the AChE and total CPO concentration at t = 0 (the factor 0.15 corrects for the fraction not bound reversibly to albumin).

RBC-AChE = target: T2, RBC-AChE (Homo sapiens, UniProt P22303); experiment: Inhibitory activity of patient plasma towards RBC-AChE of a healthy donor; assay type: biochemical; conditions: EDTA-based plasma, absence of pralidoxime
T2 construct: washed red blood cells from a healthy donor; from tissue; host or cells: haemolysate of washed red blood cells from a healthy donor
T2 sequence (P22303 32-617 isoform P22303-2 limits assumed): as above
Description: as §1

[6] = Plasma CPO concentration in CPF-poisoned patients (enzyme-based assay with horse BChE); conditions: median (IQR)
Description: as §2, §3
CPO was determined by an enzyme-based assay as described recently [9]. In short, CPO was extracted with n-pentane and the reconstituted residue titrated with purified horse BChE, allowing an LOQ of 0.5 nM. The data were corrected for 83% recovery of CPO from plasma [9].

[7] = system: human red blood cell AChE; parameters: method as in PMID 15181665; conditions: cited from earlier work
bovine serum albumin [8] = experiment: Hydrolysis / inactivation of CPO by serum albumin; assay type: biochemical; conditions: 20 nM CPO, 1% albumin in inhibition assay, assuming human serum albumin has similar constants as BSA
[9] = Ratio CPO/CPF in plasma of CPF-poisoned patients; assay type: in vivo, human
Excerpt: Data were excluded when CPF and/or CPO were below the LOQs or when the time of ingestion or blood sampling was ambiguous. […] In these cases significant post-sampling reactions had to be suspected.

bovine serum albumin [10] = conditions: pH 7.4 and 37 °C, cited from earlier work

Sequence of butyrylcholinesterase (BChE; EC 3.1.1.8) (P06276 29-602): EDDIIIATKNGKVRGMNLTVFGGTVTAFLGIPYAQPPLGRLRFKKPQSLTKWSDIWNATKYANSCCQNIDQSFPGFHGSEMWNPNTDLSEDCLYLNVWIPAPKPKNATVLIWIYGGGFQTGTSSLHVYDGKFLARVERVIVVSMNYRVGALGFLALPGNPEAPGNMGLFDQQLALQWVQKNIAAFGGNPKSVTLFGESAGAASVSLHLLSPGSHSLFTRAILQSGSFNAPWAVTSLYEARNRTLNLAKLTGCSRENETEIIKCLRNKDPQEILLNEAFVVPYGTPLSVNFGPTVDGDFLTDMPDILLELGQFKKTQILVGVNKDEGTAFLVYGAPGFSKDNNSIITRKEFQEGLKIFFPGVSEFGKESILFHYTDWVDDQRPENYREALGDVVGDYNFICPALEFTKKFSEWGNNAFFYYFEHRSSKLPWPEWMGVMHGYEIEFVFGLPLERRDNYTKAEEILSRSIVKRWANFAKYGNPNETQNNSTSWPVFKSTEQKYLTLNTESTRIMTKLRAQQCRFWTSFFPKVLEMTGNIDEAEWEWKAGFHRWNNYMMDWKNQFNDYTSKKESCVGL

## CCOP(=S)(OCC)Oc1nc(Cl)c(Cl)cc1Cl [CPF, Chlorpyrifos]
[1]
  BChE activity, of normal: less than 2%
CYP3A4
  Km: ~30 µM
[2]; 0–4 h post poisoning, median (interquartile range), n=52
  CPF plasma concentration: 2.54 (1.6–4.7) μM
[2]; 4–8 h post poisoning, median (IQR), n=67
  CPF plasma concentration: 1.65 (0.7–3.2) μM
[2]; 8–16 h post poisoning, median (IQR), n=59
  CPF plasma concentration: 0.70 (0.4–1.2) μM
[2]; 16–24 h post poisoning, median (IQR), n=30
  CPF plasma concentration: 0.44 (0.3–1.5) μM
[2]; 24–36 h post poisoning, median (IQR), n=45
  CPF plasma concentration: 0.47 (0.3–1.1) μM
[2]; 36–60 h post poisoning, median (IQR), n=41
  CPF plasma concentration: 0.66 (0.2–1.0) μM
[2]; 60–84 h post poisoning, median (IQR), n=27
  CPF plasma concentration: 0.46 (0.2–0.8) μM
[2]; 84–120 h post poisoning, median (IQR), n=28
  CPF plasma concentration: 0.39 (0.2–0.7) μM
[3]; one patient, 70 min after CPF ingestion
  AChE activity, of normal: < 10%
CYP2B6
  Km: ~1 µM

## CCOP(=O)(OCC)Oc1cc(C)nc(C(C)C)n1 [diazoxon, reference compound]
BChE
  reactivity in inhibiting BChE, times less than CPO: 20 times

## C[n+]1ccccc1/C=N/O [pralidoxime]
[3]; patient A, continuous pralidoxime infusion given for 5 days
  AChE reactivation (fraction of active enzyme from reactivatable pool): ~90%
[4]
  kr, first-order reactivation rate constant: 0.3 min⁻¹
[4]; read-out: KD, dissociation constant of the complex EPOx
  Kd: 330 µM

## Chlorpyrifos oxon [CPO]
[5]
  (initial) AChE inhibition rate: 1.35 nM/min
RBC-AChE
  fraction of CPO capable of inhibiting AChE: roughly 2/3
[6]; 0–4 h post CPF poisoning, n=52
  CPO plasma concentration: 10.1 (4.5–22.2) nM
[6]; 4–8 h post CPF poisoning, n=67
  CPO plasma concentration: 11.9 (6.5–21.5) nM
[6]; 8–16 h post CPF poisoning, n=59
  CPO plasma concentration: 12.7 (5.5–22.5) nM
[6]; 16–24 h post CPF poisoning, n=30
  CPO plasma concentration: 9.6 (4.1–30.1) nM
[6]; 24–36 h post CPF poisoning, n=45
  CPO plasma concentration: 14.1 (4.7–34.5) nM
[6]; 36–60 h post CPF poisoning, n=41
  CPO plasma concentration: 16.7 (3.4–68.4) nM
[6]; 60–84 h post CPF poisoning, n=27
  CPO plasma concentration: 22.7 (2.2–59.9) nM
[6]; 84–120 h post CPF poisoning, n=28
  CPO plasma concentration: 7.1 (4.2–40.2) nM
[7]
  ki, second-order inhibition rate constant: 100000 M⁻¹ s⁻¹
Bovine serum albumin [8]
  rate of CPO inactivation by albumin: 0.45 nM/min
[9]; 0–4 h post poisoning, median (IQR) of individual sample ratios
  CPO/CPF × 1000: 4.2 (1.9–9.5)
[9]; 4–8 h post poisoning, median (IQR)
  CPO/CPF × 1000: 6.8 (4.3–14.0)
[9]; 8–16 h post poisoning, median (IQR)
  CPO/CPF × 1000: 17.5 (9.2–31.6)
[9]; 16–24 h post poisoning, median (IQR)
  CPO/CPF × 1000: 14.2 (10.5–42.6)
[9]; 24–36 h post poisoning, median (IQR)
  CPO/CPF × 1000: 28.6 (11.3–44.4)
[9]; 24–120 h, steady-state, high individuals
  ratio CPO/CPF, other individuals: > 0.05
[9]; 24–120 h, steady-state, low individuals
  ratio CPO/CPF, some individuals: below 0.01
[9]; 36–60 h post poisoning, median (IQR)
  CPO/CPF × 1000: 29.2 (14.4–70.7)
[9]; 60–84 h post poisoning, median (IQR)
  CPO/CPF × 1000: 37.3 (12.7–65.3)
[9]; 84–120 h post poisoning, median (IQR)
  CPO/CPF × 1000: 25.0 (15.4–53.6)
[9]; between 30 and 72 h
  ratio of CPO/CPF (apparent steady-state mean): 0.03
[9]; first few hours after ingestion
  ratio of CPO/CPF (mean): 0.005
[9]; period between 0 and 4 h after ingestion
  ratio of CPO/CPF: less than 0.005
[9]; period between 24 and 120 h
  ratio of CPO/CPF on average: ~0.03
Bovine serum albumin [10]
  Vmax of CPO 'hydrolysis' by bovine serum albumin: 0.9 nmol/min/mg protein
Bovine serum albumin [10]; read-out: Km of CPO 'hydrolysis' by bovine serum albumin
  Km: 400 µM
BChE
  reaction faster with BChE than with AChE: more than 2 orders of magnitude
